Laboratory results taken from patent US7923465B2, “Cannabinoid receptor ligands, pharmaceutical compositions containing them, and process for their preparation” (priority 2005, dated 2011).
Where two headings read alike, the source gives them in different places.

Columns and labels:
hCB1 = hCB1 (Homo sapiens, UniProt P21554); test: Agonism of CB1 receptors expressed in CHO cells, forskolin cAMP assay (Protocol IX.2); assay type: cell-based; design: expressed in transfected cells; host or cells: CHO (h-CB1/CHO, G418-selected); conditions: for activation at 10 µM: CHO
Outline: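 CHO cells stably expressing hCB1 stimulated with forskolin in Krebs buffer with 0.1% FAF BSA and 1 mM IBMX. Lysed cells' cAMP measured by chemiluminescence; EC50 from nonlinear regression of dose-response curves.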

hCB2 = hCB2 (Homo sapiens, UniProt P34972); test: Agonism of CB2 receptors expressed in CHO cells, forskolin cAMP assay (Protocol IX.2); assay type: cell-based; design: expressed in transfected cells; host or cells: CHO (h-CB2/CHO, G418-selected); conditions: cAMP
Outline: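 CHO cells expressing h-CB2 were treated with compound in Krebs buffer with 0.1% FAF BSA and 1 mM IBMX, plus 10 uM forskolin, for 30 minutes at room temperature. cAMP in lysates was measured by chemiluminescence. EC50 was derived by nonlinear regression of dose–response curves, with CP 55,940 at 10 μM as reference for CB2.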

CB1 = CB1 (Rattus norvegicus, UniProt P20272); test: GTPγS binding assay, CB1 functional assay in rat cerebellar membrane (Protocol VIII); assay type: biochemical; design: 10 μg rat cerebellum membrane; from tissue; host or cells: rat cerebellum membrane, prepared in-house; conditions: for activation at 1 µM: 1 h, read-out: Per Se % Stimulation; for inhibition at 1 µM: read-out: % Inhibition of WIN-55212-2 induced stimulation
Outline: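 Rat cerebellar membranes (10 μg) incubated 1 h at 30 °C with 0.2 nM [35S]GTPγS, 50 μM GDP, and compound at 1 μM or 300 nM, alone or with 1 μM WIN 55,212-2, in Tris/MgCl2/EGTA/NaCl pH 7.4. Filter-bound radioactivity counted; percent stimulation calculated against basal specific binding (nonspecific defined by 10 μM GTPγS).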

[1] = at 10 uM, h-CB1/CHO cells, cAMP
[2] = hCB2 Agonism IC50, h-CB2/CHO cells
[3] = bare number, no unit or concentration given
[4] = GTPγS binding over basal, rat cerebellar membrane, tested at 1 uM
[5] = GTPγS binding, tested at 1 uM in presence of 1 μM WIN 55,212-2

Sequence of hCB1 (P21554 whole entry): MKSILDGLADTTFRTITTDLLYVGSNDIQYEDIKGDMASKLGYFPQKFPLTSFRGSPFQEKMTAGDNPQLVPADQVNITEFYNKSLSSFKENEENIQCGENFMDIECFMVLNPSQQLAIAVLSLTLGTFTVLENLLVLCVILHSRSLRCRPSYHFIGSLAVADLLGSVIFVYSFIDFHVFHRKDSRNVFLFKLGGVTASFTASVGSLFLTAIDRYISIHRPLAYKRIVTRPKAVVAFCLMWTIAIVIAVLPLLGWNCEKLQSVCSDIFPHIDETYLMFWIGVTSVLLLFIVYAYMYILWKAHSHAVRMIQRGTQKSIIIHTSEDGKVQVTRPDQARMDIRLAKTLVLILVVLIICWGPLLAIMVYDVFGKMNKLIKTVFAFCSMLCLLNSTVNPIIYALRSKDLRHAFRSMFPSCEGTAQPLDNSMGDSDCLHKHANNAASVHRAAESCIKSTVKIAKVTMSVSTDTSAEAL
Sequence of CB1 (P20272 whole entry): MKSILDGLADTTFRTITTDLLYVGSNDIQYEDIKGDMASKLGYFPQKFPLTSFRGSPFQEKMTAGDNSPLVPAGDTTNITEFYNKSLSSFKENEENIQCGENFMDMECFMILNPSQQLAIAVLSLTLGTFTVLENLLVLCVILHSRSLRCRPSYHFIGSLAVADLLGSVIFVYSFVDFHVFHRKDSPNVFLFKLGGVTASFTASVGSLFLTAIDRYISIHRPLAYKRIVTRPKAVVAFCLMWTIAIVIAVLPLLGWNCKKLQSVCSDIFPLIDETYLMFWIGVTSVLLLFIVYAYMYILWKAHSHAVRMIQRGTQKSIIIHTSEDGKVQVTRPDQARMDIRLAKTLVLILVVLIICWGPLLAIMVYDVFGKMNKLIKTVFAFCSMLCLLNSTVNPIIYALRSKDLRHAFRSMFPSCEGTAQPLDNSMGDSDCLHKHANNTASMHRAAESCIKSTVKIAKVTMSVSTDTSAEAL
Sequence of hCB2 (P34972 whole entry): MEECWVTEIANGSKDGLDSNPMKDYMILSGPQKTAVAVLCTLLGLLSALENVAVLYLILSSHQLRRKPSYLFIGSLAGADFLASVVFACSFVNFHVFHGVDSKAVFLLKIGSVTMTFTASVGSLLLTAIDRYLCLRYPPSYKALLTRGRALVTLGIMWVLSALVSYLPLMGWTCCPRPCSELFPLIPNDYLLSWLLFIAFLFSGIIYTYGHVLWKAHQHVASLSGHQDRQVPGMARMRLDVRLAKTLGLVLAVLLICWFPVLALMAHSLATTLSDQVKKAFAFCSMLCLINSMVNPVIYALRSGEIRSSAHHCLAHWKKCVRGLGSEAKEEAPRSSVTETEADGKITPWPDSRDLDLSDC

Structure (SMILES) | melting point [°C] | activation at 10 µM (hCB1; [1]) [%] | IC50 (hCB2; [2]) [nM] | hCB1 Agonism (hCB1; [3]) | activation at 1 µM (CB1; [4]) [%] | inhibition at 1 µM (CB1; [5]) [%] | hCB1 Agonism (hCB1; [1]) [% at] | Per Se % Stimulation (CB1; [4]) [%] | % Inhibition of WIN-55212-2 induced stimulation (CB1; [5]) [%] | IC50 (hCB2; h-CB2/CHO cells, read-out: hCB2 Agonism IC50) [nM]
O=C(NCc1ccc(Cl)cc1Cl)c1nn(-c2ccc(Cl)cc2Cl)c2c1C1CCC2C1 (centres unmarked) [Example 251, N(3)-(2,4-Dichlorobenzyl)-1-(2,4-dichlorophenyl)-4,5,6,7-tetrahydro-1H-4,7-methano-indazole-3-carboxamide] | 57 to 59 | 37 | 40.2 | – | – | – | – | – | – | –
O=C(NNc1ccccc1Cl)c1nn(-c2ccc(Cl)cc2Cl)c2c1C1CCC2C1 (centres unmarked) [Example 257, N(3)-[(2-Chlorophenyl)amino]-1-(2,4-dichlorophenyl)-4,5,6,7-tetrahydro-1H-4,7-methano-indazole-3-carboxamide] | 180 to 183 | – | 3.7 | 0 | -5.1 | 48.3 | – | – | – | –
O=C(NNc1ccccc1Br)c1nn(-c2ccc(Cl)cc2Cl)c2c1C1CCC2C1 (centres unmarked) [Example 263, N(3)-[(2-Bromophenyl)amino]-1-(2,4-dichlorophenyl)-4,5,6,7-tetrahydro-1H-4,7-methano-indazole-3-carboxamide] | 159 | 16.2 | 2.5 | – | – | – | – | – | – | –
O=C(NN1CCCCC1)c1nn(-c2ccc(Cl)cc2)c2c1C1CC3CC(C1)CC2C3 [Example 140, N(7)-Piperidino-5-(4′-chlorophenyl)-5,6-diazatetracyclo[7.3.1.1^3,11.0^4,8]tetradeca-4(8)-6-diene-7-carboxamide] | – | – | – | – | – | – | 48.88 | 24.9 | 71.9 | –
O=C(NC1CCCCC1)c1nn(-c2ccc(Br)cc2)c2c1C1CCC2C1 (centres unmarked) [Example 275, N(3)-Cyclohexyl-1-(4-bromophenyl)-4,5,6,7-tetrahydro-1H-4,7-methano-indazole-3-carboxamide] | 164 | 16.4 | 4.49 | – | – | – | – | – | – | –
CN(NC(=O)c1nn(-c2ccc(Cl)cc2)c2c1C1CCC2C1)C1CCCCC1 (centres unmarked) [Example 213, N(3)-[(N-Cyclohexyl-N-methyl)amino]-1-(4-chlorophenyl)-4,5,6,7-tetrahydro-1H-4,7-methano-indazole-3-carboxamide] | 62 | 0 | 12.7 | – | – | – | – | – | – | –
O=C(NCc1ccccc1Cl)c1nn(-c2ccc(Cl)cc2)c2c1C1CCC2C1 (centres unmarked) [Example 221, N(3)-(2-Chlorobenzyl)-1-(4-chlorophenyl)-4,5,6,7-tetrahydro-1H-4,7-methano-indazole-3-carboxamide] | 119 to 122 | 0 | – | – | -16.7 | 95.7 | – | – | – | 36.4
O=C(NNc1ccc(Cl)cc1Cl)c1nn(-c2ccc(Cl)cc2Cl)c2c1C1CCC2C1 (centres unmarked) [Example 260, N(3)-[(2,4-Dichlorophenyl)amino]-1-(2,4-dichlorophenyl)-4,5,6,7-tetrahydro-1H-4,7-methano-indazole-3-carboxamide] | – | – | 4.1 | 0 | 38 | 78.8 | – | – | – | –
